Columns and labels:
Type in all cases: in vivo
rice (Oryra sativa) = assay: Test B flooded paddy test; details: Flood, 250 g ai/ha; 0 to 100 scale where 0 is no effect and 100 is complete control; 13 to 15 d
Outline: (§1)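 Visual ratings (0 none to 100 complete control) are relative to untreated plants, taken 13–15 d after treatment in a greenhouse. Test material went straight into floodwater standing 3 cm above the soil, kept constant, on plants at the 2-leaf stage.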

[1] = test system: sedge, umbrella (small-flower umbrella sedge, Cyperus difformis); assay: Test B flooded paddy test; details: Flood, 250 g ai/ha; 0 to 100 scale where 0 is no effect and 100 is complete control; 13 to 15 d
Outline: as §1

[2] = test system: barnyardgrass (Echinochloa crus-galli); assay: Test B flooded paddy test; details: Flood, 250 g ai/ha; 0 to 100 scale where 0 is no effect and 100 is complete control; 13 to 15 d
Outline: as §1

[3] = test system: ducksalad (Heteranthera limosa); assay: Test B flooded paddy test; details: Flood, 250 g ai/ha; 0 to 100 scale where 0 is no effect and 100 is complete control; 13 to 15 d
Outline: as §1

[4] = test system: ryegrass, Italian (Italian ryegrass, Lolium multiflorum); assay: Test A postemergence; details: postemergence; for Ryegrass, Italian plant response rating: 125 g ai/ha, visual injury rating on 0 to 100 scale (0 no effect, 100 complete control), approx. 10 d; for Plant response rating, Ryegrass, Italian: 500 g ai/ha, 0 to 100 scale, 0 no effect, 100 complete control
Outline: (§2)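 Ratings of 0 (no effect) to 100 (complete control) come from visual comparison with untreated controls roughly 10 d after treatment. Test chemicals, formulated in a non-phytotoxic solvent mixture with surfactant, were applied either as a preemergence directed soil spray on seeded soil or postemergence to one- to two-leaf plants 2 to 10 cm tall.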

Kochia (Kochia scoparia) [5] = assay: Test A postemergence; details: postemergence; for Kochia plant response rating: 125 g ai/ha, visual injury rating on 0 to 100 scale (0 no effect, 100 complete control), approx. 10 d; for Plant response rating, Kochia: 500 g ai/ha, 0 to 100 scale, 0 no effect, 100 complete control
Outline: as §2

[6] = test system: giant foxtail (Setaria faberii); assay: Test A postemergence; details: postemergence; for Foxtail, Giant plant response rating: 125 g ai/ha, visual injury rating on 0 to 100 scale (0 no effect, 100 complete control), approx. 10 d; for Plant response rating, Foxtail, Giant: 500 g ai/ha, 0 to 100 scale, 0 no effect, 100 complete control
Outline: as §2

[7] = test system: pigweed (Amaranthus retroflexus); assay: Test A postemergence; details: postemergence; for Pigweed plant response rating: 125 g ai/ha, visual injury rating on 0 to 100 scale (0 no effect, 100 complete control), approx. 10 d; for Plant response rating, Pigweed: 500 g ai/ha, 0 to 100 scale, 0 no effect, 100 complete control
Outline: as §2

[8] = test system: Galium (catchweed bedstraw, Galium aparine); assay: Test A postemergence; details: postemergence; for Galium plant response rating: 125 g ai/ha, visual injury rating on 0 to 100 scale (0 no effect, 100 complete control), approx. 10 d; for Plant response rating, Galium: 500 g ai/ha, 0 to 100 scale, 0 no effect, 100 complete control
Outline: as §2

[9] = test system: blackgrass (Alopecurus myosuroides); assay: Test A postemergence; details: postemergence; for Blackgrass plant response rating: 125 g ai/ha, visual injury rating on 0 to 100 scale (0 no effect, 100 complete control), approx. 10 d; for Plant response rating, Blackgrass: 500 g ai/ha, 0 to 100 scale, 0 no effect, 100 complete control
Outline: as §2

[10] = test system: barnyardgrass (Echinochloa crus-galli); assay: Test A postemergence; details: postemergence; for Barnyardgrass plant response rating: 125 g ai/ha, visual injury rating on 0 to 100 scale (0 no effect, 100 complete control), approx. 10 d; for Plant response rating, Barnyardgrass: 500 g ai/ha, 0 to 100 scale, 0 no effect, 100 complete control
Outline: as §2

[11] = test system: wheat (Triticum aestivum); assay: Test A postemergence; details: postemergence; for Wheat plant response rating: 125 g ai/ha, visual injury rating on 0 to 100 scale (0 no effect, 100 complete control), approx. 10 d; for Plant response rating, Wheat: 500 g ai/ha, 0 to 100 scale, 0 no effect, 100 complete control
Outline: as §2

corn (Zea mays) = assay: Test A postemergence; details: postemergence; for Corn plant response rating: 125 g ai/ha, visual injury rating on 0 to 100 scale (0 no effect, 100 complete control), approx. 10 d; for Plant response rating, Corn: 500 g ai/ha, 0 to 100 scale, 0 no effect, 100 complete control
Outline: as §2

[12] = test system: ragweed (common ragweed, Ambrosia elatior); assay: Test A postemergence; details: postemergence; for Ragweed plant response rating: 125 g ai/ha, visual injury rating on 0 to 100 scale (0 no effect, 100 complete control), approx. 10 d; for Plant response rating, Ragweed: 500 g ai/ha, 0 to 100 scale, 0 no effect, 100 complete control
Outline: as §2

[13] = test system: ryegrass, Italian (Italian ryegrass, Lolium multiflorum); assay: Test A preemergence; details: for Plant response rating, Ryegrass, Italian: 125 g ai/ha, preemergence, 0 to 100 scale (0 no effect, 100 complete control); for Ryegrass, Italian plant response rating (0 to 100 scale, 0 is no effect, 100 is complete control): Preemergence, 500 g ai/ha, visual injury approx. 10 d
Outline: as §2

Kochia (Kochia scoparia) [14] = assay: Test A preemergence; details: for Plant response rating, Kochia: 125 g ai/ha, preemergence, 0 to 100 scale (0 no effect, 100 complete control); for Kochia plant response rating (0 to 100 scale, 0 is no effect, 100 is complete control): Preemergence, 500 g ai/ha, visual injury approx. 10 d
Outline: as §2

[15] = test system: giant foxtail (Setaria faberii); assay: Test A preemergence; details: for Plant response rating, Foxtail, Giant: 125 g ai/ha, preemergence, 0 to 100 scale (0 no effect, 100 complete control); for Foxtail, Giant plant response rating (0 to 100 scale, 0 is no effect, 100 is complete control): Preemergence, 500 g ai/ha, visual injury approx. 10 d
Outline: as §2

[16] = test system: pigweed (Amaranthus retroflexus); assay: Test A preemergence; details: for Plant response rating, Pigweed: 125 g ai/ha, preemergence, 0 to 100 scale (0 no effect, 100 complete control); for Pigweed plant response rating (0 to 100 scale, 0 is no effect, 100 is complete control): Preemergence, 500 g ai/ha, visual injury approx. 10 d
[17] = test system: barnyardgrass (Echinochloa crus-galli); assay: Test A preemergence; details: for Plant response rating, Barnyardgrass: 125 g ai/ha, preemergence, 0 to 100 scale (0 no effect, 100 complete control); for Barnyardgrass plant response rating (0 to 100 scale, 0 is no effect, 100 is complete control): Preemergence, 500 g ai/ha, visual injury approx. 10 d
Outline: as §2

[18] = test system: ragweed (common ragweed, Ambrosia elatior); assay: Test A preemergence; details: for Plant response rating, Ragweed: 125 g ai/ha, preemergence, 0 to 100 scale (0 no effect, 100 complete control); for Ragweed plant response rating (0 to 100 scale, 0 is no effect, 100 is complete control): Preemergence, 500 g ai/ha, visual injury approx. 10 d
Outline: as §2

CN1CC(c2ccc(C(F)(F)F)c(F)c2)C(C(=O)Nc2ccc(F)cc2F)C1=O (stereo not drawn) [Compound 398]
Plant response rating, Rice (rice (Oryra sativa)): 20
Plant response rating, Sedge, Umbrella [1]: 0
Plant response rating, Barnyardgrass [2]: 60
Plant response rating, Ducksalad [3]: 80
Ryegrass, Italian plant response rating [4]: 20
Plant response rating, Ryegrass, Italian [4]: 50
Kochia plant response rating (Kochia (Kochia scoparia) [5]): 60
Plant response rating, Kochia (Kochia (Kochia scoparia) [5]): 80
Foxtail, Giant plant response rating [6]: 80
Plant response rating, Foxtail, Giant [6]: 90
Pigweed plant response rating [7]: 50
Plant response rating, Pigweed [7]: 60
Galium plant response rating [8]: 50
Plant response rating, Galium [8]: 60
Blackgrass plant response rating [9]: 40
Plant response rating, Blackgrass [9]: 60
Barnyardgrass plant response rating [10]: 90
Plant response rating, Barnyardgrass [10]: 90
Wheat plant response rating [11]: 20
Plant response rating, Wheat [11]: 70
Corn plant response rating (corn (Zea mays)): 60
Plant response rating, Corn (corn (Zea mays)): 70
Ragweed plant response rating [12]: 0
Plant response rating, Ragweed [12]: 0
Plant response rating, Ryegrass, Italian [13]: 30
Ryegrass, Italian plant response rating (0 to 100 scale, 0 is no effect, 100 is complete control) [13]: 70
Plant response rating, Kochia (Kochia (Kochia scoparia) [14]): 70
Kochia plant response rating (0 to 100 scale, 0 is no effect, 100 is complete control) (Kochia (Kochia scoparia) [14]): 90
Plant response rating, Foxtail, Giant [15]: 90
Foxtail, Giant plant response rating (0 to 100 scale, 0 is no effect, 100 is complete control) [15]: 90
Plant response rating, Pigweed [16]: 70
Pigweed plant response rating (0 to 100 scale, 0 is no effect, 100 is complete control) [16]: 90
Plant response rating, Barnyardgrass [17]: 90
Barnyardgrass plant response rating (0 to 100 scale, 0 is no effect, 100 is complete control) [17]: 90
Plant response rating, Ragweed [18]: 20
Ragweed plant response rating (0 to 100 scale, 0 is no effect, 100 is complete control) [18]: 30

Cc1cc(C2CN(C)C(=O)C2C(=O)Nc2ccc(F)cc2F)ccc1F (stereo not drawn) [Compound 404]
Plant response rating, Rice (rice (Oryra sativa)): 30
Plant response rating, Sedge, Umbrella [1]: 0
Plant response rating, Barnyardgrass [2]: 80
Plant response rating, Ducksalad [3]: 100
Ryegrass, Italian plant response rating [4]: 40
Plant response rating, Ryegrass, Italian [4]: 70
Kochia plant response rating (Kochia (Kochia scoparia) [5]): 60
Plant response rating, Kochia (Kochia (Kochia scoparia) [5]): 70
Foxtail, Giant plant response rating [6]: 90
Plant response rating, Foxtail, Giant [6]: 90
Pigweed plant response rating [7]: 20
Plant response rating, Pigweed [7]: 60
Galium plant response rating [8]: 50
Plant response rating, Galium [8]: 50
Blackgrass plant response rating [9]: 40
Plant response rating, Blackgrass [9]: 60
Barnyardgrass plant response rating [10]: 90
Plant response rating, Barnyardgrass [10]: 90
Wheat plant response rating [11]: 50
Plant response rating, Wheat [11]: 80
Corn plant response rating (corn (Zea mays)): 40
Plant response rating, Corn (corn (Zea mays)): 80
Ragweed plant response rating [12]: 30
Plant response rating, Ragweed [12]: 50
Plant response rating, Ryegrass, Italian [13]: 0
Ryegrass, Italian plant response rating (0 to 100 scale, 0 is no effect, 100 is complete control) [13]: 80
Plant response rating, Kochia (Kochia (Kochia scoparia) [14]): 60
Kochia plant response rating (0 to 100 scale, 0 is no effect, 100 is complete control) (Kochia (Kochia scoparia) [14]): 70
Plant response rating, Foxtail, Giant [15]: 90
Foxtail, Giant plant response rating (0 to 100 scale, 0 is no effect, 100 is complete control) [15]: 90
Plant response rating, Pigweed [16]: 30
Pigweed plant response rating (0 to 100 scale, 0 is no effect, 100 is complete control) [16]: 60
Plant response rating, Barnyardgrass [17]: 90
Barnyardgrass plant response rating (0 to 100 scale, 0 is no effect, 100 is complete control) [17]: 90
Plant response rating, Ragweed [18]: 0
Ragweed plant response rating (0 to 100 scale, 0 is no effect, 100 is complete control) [18]: 50

Reference: patent US12077503B2, “Substituted cyclic amides and their use as herbicides” (FMC CORPORATION, priority 2015, dated 2024)
